Source: PMC6511062, “Preclinical candidate for the treatment of visceral leishmaniasis that acts through proteasome inhibition” (Proceedings of the National Academy of Sciences of the …, 2019)

Columns and labels:
bloodstream T. brucei [1] = assay: T. brucei stem-loop RNAi knock-down lines, drug sensitivity; type: cell-based, Trypanosoma brucei; settings: for EC50: Trypanosoma brucei
Protocol: f. T. brucei RNAi constructs and cell lines
PCR primers (Table S6) were designed using RNAit28 to generate a 500-bp fragment conferring specific knockdown to Tb927.8.6620 (Table S7) and a 543-bp fragment of Tb927.9.15260 PCR fragments were cloned in the pRPaSLi construct for the generation of stem-loop dsRNA under the control of tetracycline as the trigger for RNAi28,29. Constructs were digested with AscI, EtOH-precipitated, and resuspended ([…]) in sterile water. 2T1 strains, containing a tetracycline repressor, were electroporated using program X-001 of the Nucleofector II electroporator (Amaxa, Cologne, Germany)30 following the addition of 5 µg of linearized DNA mixed in 100 µL of cytomix31. Transformants were cloned by limiting dilution under phleomycin (1 µg/mL) and hygromycin (2.5 µg/mL) selection. Puromycin susceptibility (1 µg/mL) was tested for full integration of the construct and expression of stem-loop RNAi was induced with concentrations of tetracycline ranging from […].
T. brucei RNA was isolated using an RNeasy purification kit (Qiagen) and cDNA-synthesized using a high capacity RNA-to-cDNA kit (Applied Biosystems). PCR primers (Table S6) were designed using the Premierbiosoft's Beacon Designer 6. qRT-PCRs […]
knock-down bloodstream trypanosomes. Transcript levels in trypanosomes where RNAi was induced by the addition of tetracycline (1 µg/mL, 24 h) were compared to wild-type (uninduced) levels. Relative levels of cDNA were normalized using the reference gene TERT (Tb927.11.10190, telomerase reverse transcriptase).
Compound 7, nM Compound 7, nM
Figure S4. Dose-response curves for compound 7 against cell lines where […]
(open circles) and induced (closed circles), respectively. […]
and 8.7 ± 0.3 nM for Tb927.8.6620RNAi uninduced (open circles) and induced (closed circles), respectively. Results are the means standard deviations of data from three […]

bloodstream T. brucei [2] = assay: Cell cycle (FACS) analysis, bloodstream T. brucei; type: cell-based, Trypanosoma brucei; settings: 5x EC50
Protocol: consisted of 1 µL (40 ng) of cDNA, 10 µL of Brilliant III Ultra-Fast QPCR Master Mix (Agilent Technologies), 1 µL (500 nM) each of the forward and reverse primers, and 0.3 µl (30 nM) of reference dye and nuclease-free PCR grade-treated water. PCR was performed using an Agilent Mx3005P machine with the following cycling conditions:
95°C for 3 min; 40 cycles of 95°C for 20 s; then 60 °C for 20 s. The reference gene TERT (Tb927.11.10190, telomerase reverse transcriptase) was used to provide a baseline of transcription levels for normalization of the data. Relative quantification in the tetracycline-induced cell lines were normalized to the un-induced cell line using the […]
h. Morphological analysis […]
Cultures of bloodstream T. brucei and L. donovani promastigotes at starting cell densities of 5 x 105 were incubated with concentrations of compound 7 equivalent to 5x their respective EC50 values. […] After washing, cell densities were adjusted to 5 × 10^5 cells mL, re-suspended in 500 µL of PBS containing 50 µg/mL propidium iodide, 50 µg/mL RNase and 0.1% Triton X-100, incubated at room temperature for 20 min in the dark and analysed using FACSort analytical flow cytometer using Cellquest software (BD Biosciences). j. […]

[3] = system: Salmonella typhimurium TA1535, TA1537, TA98, TA100 and Escherichia coli WP2uvrA(pKM101); assay: Bacterial mutation screening assay (Ames test), overall outcome; type: cell-based; settings: presence and absence of S9-mix
Protocol: i. Bacterial Mutation (Ames) Assay
Compound 6 was tested in a bacterial mutation screening assay (Ames test) with Salmonella typhimurium TA1535, TA1537, TA98, TA100 and Escherichia coli WP2uvrA(pKM101) in the presence and absence of an exogenous mammalian oxidative metabolism system (S9-mix). The maximum concentration tested and […]
Compound 6a was tested in a bacterial mutation screening assay (Ames test) with […]
Compound 7a was tested in a bacterial mutation screening assay (Ames test) with […]
The bacterial mutation screening assay was a plate incorporation test carried out as previously described15 and according to current methodology. […]

Row | Compound | EC50 (bloodstream T. brucei [1]; Tb927.8.6620 RNAi induced) | EC50 (bloodstream T. brucei [1]; Tb927.8.6620 RNAi uninduced) | EC50 (bloodstream T. brucei [1]; Tb927.9.15260 RNAi induced) | EC50 (bloodstream T. brucei [1]; Tb927.9.15260 RNAi uninduced) | resistance conferred by RNAi knockdown (bloodstream T. brucei [1]; knockdown of Tb927.9.15260 and Tb927.8.6620) | effect on cell cycle progression (bloodstream T. brucei [2]) | AMES [3]
1 | O=C(Nc1ccc(F)c(-c2cn3nc(-c4ccccc4)cnc3n2)c1)N1CCCC1 [Compound 7] | 8.7 ± 0.3 nM | 4.2 ± 0.2 nM | 8 ± 0.4 nM | 4.1 ± 0.2 nM | approximately twofold | accumulation of cells in G2/M | –
2 | O=C(Nc1ccc(F)c(-c2ccn3c(N4CCOCC4)cnc3n2)c1)N1CCCC1 [Compound 8] | – | – | – | – | – | – | negative
